Measured values reported in article PMC5380162, “Characterization of a novel N-acetylneuraminic acid lyase favoring N-acetylneuraminic acid synthesis” (Scientific Reports, 2015).
Blank lines part the entries; values can stand above or below the compound they belong to.

Key:
Format in all cases: biochemical
[1] = biological target: T1, EcDHDPS (Escherichia coli, UniProt P0A6L2); test: coupled enzymatic assay (Yugari and Gilvarg); conditions: co-substrate pyruvate
T1 construct: gene dapA; dapA amplified from E. coli genomic DNA into pET-28a(+), expressed in E. coli Rosetta, Ni-NTA
T1 sequence (P0A6L2 1-292): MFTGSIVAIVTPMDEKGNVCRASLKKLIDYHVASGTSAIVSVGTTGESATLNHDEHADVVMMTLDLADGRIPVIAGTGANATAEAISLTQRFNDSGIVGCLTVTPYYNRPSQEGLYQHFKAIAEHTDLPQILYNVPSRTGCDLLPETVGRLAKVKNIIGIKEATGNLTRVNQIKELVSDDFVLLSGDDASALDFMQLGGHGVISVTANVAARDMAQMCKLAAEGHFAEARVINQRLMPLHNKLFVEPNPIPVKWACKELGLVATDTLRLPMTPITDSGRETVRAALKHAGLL

[2] = biological target: T2, CgNal (Corynebacterium glutamicum, UniProt Q8NMD2); test: HPLC of substrates and products, Neu5Ac synthesis; conditions: 0.1 M Tris-HCl pH 7.5, assay at 37 °C, synthesis direction
T2 construct: gene Cgl2646; full length 312 aa (939 bp ORF), pET-28a(+), N-terminal His6-tag, E. coli Rosetta (DE3) pLysS, ~33 kDa, Ni-NTA; NAL family homotetramer
Description: HPLC of substrates and products, Neu5Ac synthesis on CgNal

[3] = biological target: T2, CgNal; test: HPLC of substrates and products, Neu5Ac cleavage; conditions: read-out: Neu5Ac Cleavage / Neu5Ac / Km; 0.1 M Tris-HCl pH 7.5, assay at 37 °C; cleavage direction
Description: HPLC of substrates and products, Neu5Ac cleavage on CgNal

T2 sequence (Q8NMD2 entry or part of it): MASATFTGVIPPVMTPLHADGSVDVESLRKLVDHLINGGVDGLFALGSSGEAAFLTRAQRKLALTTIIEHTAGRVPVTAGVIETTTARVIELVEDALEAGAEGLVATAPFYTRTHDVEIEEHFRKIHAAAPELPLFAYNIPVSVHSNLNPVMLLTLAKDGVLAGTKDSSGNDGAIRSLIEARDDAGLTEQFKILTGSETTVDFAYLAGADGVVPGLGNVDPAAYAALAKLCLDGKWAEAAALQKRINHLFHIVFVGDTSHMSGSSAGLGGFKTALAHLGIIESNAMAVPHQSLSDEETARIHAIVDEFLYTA

SMILES: N[C@@H](CC=O)C(=O)O [ASA]
coupled enzymatic assay (Yugari and Gilvarg) [1]: Using ASA as substrate, CgNal showed only half the activity of EcDHDPS

Km ([2]; read-out: Neu5Ac Synthesis / ManNAc / Km, pyruvate fixed at 100 mM): 53.3 mM
SMILES: CC(=O)N[C@@H]1C(O)O[C@H](CO)[C@@H](O)[C@@H]1O (stereo partly shown) [ManNAc]

Km [3]: 33.5 mM
SMILES: CC(=O)N[C@H]1[C@H]([C@H](O)[C@H](O)CO)OC(O)(C(=O)O)C[C@@H]1O (stereo partly shown) [Neu5Ac]

Km ([2]; read-out: Neu5Ac Synthesis / Pyruvate / Km, ManNAc fixed at 50 mM): 14.7 mM
SMILES: CC(=O)C(=O)O [pyruvate]
